Results on 19 compounds are retold here after ChEMBL document CHEMBL3217563, “Second generation analogues of RKA182: synthetic tetraoxanes with outstanding in vitro and in vivo antimalarial activities” (Medchemcomm, 2011).

One data set concerns Plasmodium berghei. Put plainly: Antimalarial activity against Plasmodium berghei ANKA infected in mouse assessed as suppression of parasitaemia at 30 mg/kg, po administered for 3 days measured on day 4 relative to control. In kind it is functional.
Data set [1] relates to Plasmodium falciparum. Put plainly: Antiplasmodial activity against Plasmodium falciparum 3D7 infected in human erythrocytes assessed as [3H]hypoxanthine incorporation after 48 hrs by betaplate liquid scintillation counting analysis. In kind it is functional, organism-based.
Data set [2] concerns Plasmodium falciparum. Put plainly: Antiplasmodial activity against chloroquine-resistant Plasmodium falciparum K1 infected in human erythrocytes assessed as [3H]hypoxanthine incorporation after 48 hrs by betaplate liquid scintillation counting analysis. Type of data set: functional, organism-based.
In the next data set the test system is Mus musculus. Put plainly: Antimalarial activity against Plasmodium berghei ANKA infected in po dosed mouse assessed as suppression of parasitaemia administered for 3 days measured on day 4 relative to control. In kind it is functional.
Data set [3] can be described thus: Metabolic stability in human liver microsomes assessed as compound remaining at 10 ug/ml after 30 mins by LC/MS/MS analysis relative to control. Type of data set: ADME. The following applies: read-out: Stability. In general terms: Liver microsomes are a subcellular fraction often used to study metabolism.
Data set [4] is described as follows: Metabolic stability in human liver microsomes assessed as compound remaining at 10 ug/ml after 60 mins by LC/MS/MS analysis relative to control. In kind it is ADME. The following applies: read-out: Stability.
Data set [5] is described as follows: Metabolic stability in human liver microsomes assessed as compound remaining at 10 ug/ml after 10 mins by LC/MS/MS analysis relative to control. In kind it is ADME. The following applies: read-out: Stability.
Data set [6] has as its system Plasmodium falciparum. Description: Selectivity ratio of IC50 for Plasmodium falciparum 3D7 infected in human erythrocytes to IC50 for Plasmodium falciparum K1 infected in human erythrocytes. In kind it is functional.

As to `C1CCN(C2CCC3(CC2)OOC2(OO3)C3CC4CC(C3)CC2C4)C1` (stereo not drawn), the Activity with Plasmodium berghei is reported as 99.8%. The half-inhibitory concentration (IC50) (in general, the concentration at which inhibition is half-maximal) was 0.7 nM in the data set on Plasmodium falciparum [1] (Plasmodium falciparum, 3D7) and 1 nM in the data set with Plasmodium falciparum [2].

With `C[C@H]1[C@H](OC(=O)CCC(=O)O)O[C@@H]2O[C@@]3(C)CC[C@H]4[C@H](C)CC[C@@H]1[C@@]24OO3` [ARTESUNATE], in the data set on Plasmodium berghei, the Activity came to 99.6%. Also, in the data set on Mus musculus, the ED50 (usually the dose at which the effect has come halfway, by size or by number of responders) amounted to 2.8 mg/kg and the ED90 was 18 mg/kg. The 50% inhibitory concentration (IC50) with Plasmodium falciparum [2] was determined as 4.9 nM.

For `NC1CCN(C2CCC3(CC2)OOC2(OO3)C3CC4CC(C3)CC2C4)CC1` (stereo not drawn), the remaining at 0.5 h, 10 ug/ml in data set [3] turned out to be 73.6%. For the same compound, the remaining at 1 h, 10 ug/ml in data set [4] was determined as 57.4%. The 50% inhibitory concentration (IC50) in the data set on Plasmodium falciparum [1] and with Plasmodium falciparum [2] was 1.2 nM throughout. Besides, the remaining at 10 min, 10 ug/ml in data set [5] stood at 86.7%.

For the compound `CC(C)(C)NC1CCC2(CC1)OOC1(OO2)C2CC3CC(C2)CC1C3` (stereo not drawn), in the data set on Plasmodium berghei, the Activity came to 98.7%. Moreover, in the data set with Plasmodium falciparum [1] (Plasmodium falciparum, 3D7), the IC50 was 1.3 nM.

On to `CC(C)(C)OC(=O)NC1CCN(C2CCC3(CC2)OOC2(OO3)C3CC4CC(C3)CC2C4)CC1` (stereo not drawn), for which the IC50 in the data set with Plasmodium falciparum [1] (Plasmodium falciparum, 3D7) worked out at 1 nM.

As to `C1CCC(NC2CCC3(CC2)OOC2(OO3)C3CC4CC(C3)CC2C4)CC1` (stereo not drawn), the “Ratio IC50” value in the data set with Plasmodium falciparum [6] was 25. Moreover, the IC50 with Plasmodium falciparum [1] (Plasmodium falciparum, 3D7) turned out to be 0.4 nM; with Plasmodium falciparum [2] it was 0.2 nM.

`O=S1(=O)CC[N+]([O-])(C2CCC3(CC2)OOC2(OO3)C3CC4CC(C3)CC2C4)CC1` (stereo not drawn): the half-maximal inhibitory concentration (IC50) is 3.7 nM in the data set on Plasmodium falciparum [1] (Plasmodium falciparum, 3D7) and 2.5 nM in the data set with Plasmodium falciparum [2].

Consider `CN1CCC(NC2CCC3(CC2)OOC2(OO3)C3CC4CC(C3)CC2C4)CC1` (stereo not drawn), for which the Activity with Plasmodium berghei is given as 99.2%. The IC50 turned out to be 0.4 nM with Plasmodium falciparum [1] (Plasmodium falciparum, 3D7) and 1.1 nM in the data set with Plasmodium falciparum [2].

In the case of `C1CN(C2CCC3(CC2)OOC2(OO3)C3CC4CC(C3)CC2C4)CCO1` (stereo not drawn), the IC50 in the data set on Plasmodium falciparum [1] (Plasmodium falciparum, 3D7) was 0.4 nM; in the data set on Plasmodium falciparum [2], 0.4 nM.

`C1C2CC3CC1CC(C2)C31OOC2(CCC(NC3CC3)CC2)OO1` (stereo not drawn): the Activity in the data set with Plasmodium berghei is recorded as 99.7%. Also, in the data set on Plasmodium falciparum [1] (Plasmodium falciparum, 3D7), the half-inhibitory concentration (IC50) amounted to 1.5 nM.

Consider `O=C1CN(C2CCC3(CC2)OOC2(OO3)C3CC4CC(C3)CC2C4)CCN1` (stereo not drawn), for which the Activity in the data set with Plasmodium berghei turned out to be 98.8%. In the data set with Plasmodium falciparum [1] (Plasmodium falciparum, 3D7), the IC50 was found to be 3.5 nM.

Consider `C1CC(NC2CCC3(CC2)OOC2(OO3)C3CC4CC(C3)CC2C4)CCO1` (stereo not drawn), for which, in the data set on Mus musculus, the ED50 is 2.8 mg/kg. Further, the ED90 in the data set on Mus musculus worked out at 18 mg/kg. The IC50 was found to be 0.7 nM in the data set with Plasmodium falciparum [1] (Plasmodium falciparum, 3D7) and 0.4 nM with Plasmodium falciparum [2].

`C1CC(NC2CCC3(CC2)OOC2(OO3)C3CC4CC(C3)CC2C4)CCO1.Cl` (stereo not drawn): in the data set with Mus musculus, the ED50 was determined as 2.3 mg/kg and the ED90 worked out at 11 mg/kg. Also, in the data set with Plasmodium falciparum [1], the IC50 amounted to 1 nM.

`FC1(F)CCN(C2CCC3(CC2)OOC2(OO3)C3CC4CC(C3)CC2C4)CC1` (stereo not drawn): the Activity in the data set on Plasmodium berghei is recorded as 99.8%. In addition, in the data set with Mus musculus, the 50% effective dose (ED50) turned out to be 9.4 mg/kg. In the data set on Mus musculus, the ED90 was determined as 34 mg/kg. Moreover, the IC50 is 0.6 nM with Plasmodium falciparum [1] (Plasmodium falciparum, 3D7) and 1.3 nM with Plasmodium falciparum [2].

As to `C1CCN(C2CCN(C3CCC4(CC3)OOC3(OO4)C4CC5CC(C4)CC3C5)CC2)CC1` (stereo not drawn), in the data set on Plasmodium berghei, the Activity is 99.7%. In addition, the “Ratio IC50” value with Plasmodium falciparum [6] stood at 25. Besides, the IC50 with Plasmodium falciparum [1] (Plasmodium falciparum, 3D7) came out at 2.4 nM; with Plasmodium falciparum [2], 0.2 nM.

In the case of `FC1(F)CCC(NC2CCC3(CC2)OOC2(OO3)C3CC4CC(C3)CC2C4)CC1` (stereo not drawn), the IC50 turned out to be 0.4 nM with Plasmodium falciparum [1] (Plasmodium falciparum, 3D7) and 0.9 nM in the data set with Plasmodium falciparum [2].

For the compound `CN1CCN(C2CCN(C(=O)CC3CCC4(CC3)OOC3(OO4)C4CC5CC(C4)CC3C5)CC2)CC1` (stereo not drawn), the remaining at 0.5 h, 10 ug/ml in data set [3] worked out at 40.6%. The remaining at 1 h, 10 ug/ml in data set [4] turned out to be 39.5%. The half-inhibitory concentration (IC50) in the data set with Plasmodium falciparum [1] (Plasmodium falciparum, 3D7) was 0.819 nM; in the data set with Plasmodium falciparum [2] it was 1.12 nM. For the same compound, the remaining at 10 min, 10 ug/ml in data set [5] stood at 62.9%.

Consider `C1CCN(C2CCC3(CC2)OOC2(OO3)C3CC4CC(C3)CC2C4)CC1` (stereo not drawn), for which the IC50 with Plasmodium falciparum [1] (Plasmodium falciparum, 3D7) amounted to 0.6 nM; in the data set with Plasmodium falciparum [2] it was 0.4 nM.

Regarding `Cc1ccc(S(=O)(=O)O)cc1.NC1CCN(C2CCC3(CC2)OOC2(OO3)C3CC4CC(C3)CC2C4)CC1` (stereo not drawn), the Activity in the data set with Plasmodium berghei was found to be 99.9%. In addition, in the data set with Mus musculus, the ED50 was 3.7 mg/kg and the ED90 amounted to 10 mg/kg. For the same compound, the 50% inhibitory concentration (IC50) in the data set on Plasmodium falciparum [1] is 2.5 nM.
